The compounds below were run against T1, Rat liver microsomal squalene synthetase (Rattus norvegicus, UniProt Q02769) (assay: In vitro inhibition of squalene synthetase). Details: 10 µM test compound; rat liver microsomes, labelled farnesyl pyrophosphate, 10 minutes at 37 °C; compared to controls with no test compound.
T1 construct: Rat liver microsome, the source of enzyme; from tissue; host or cells: rat liver microsomes
T1 sequence (Q02769 1-416): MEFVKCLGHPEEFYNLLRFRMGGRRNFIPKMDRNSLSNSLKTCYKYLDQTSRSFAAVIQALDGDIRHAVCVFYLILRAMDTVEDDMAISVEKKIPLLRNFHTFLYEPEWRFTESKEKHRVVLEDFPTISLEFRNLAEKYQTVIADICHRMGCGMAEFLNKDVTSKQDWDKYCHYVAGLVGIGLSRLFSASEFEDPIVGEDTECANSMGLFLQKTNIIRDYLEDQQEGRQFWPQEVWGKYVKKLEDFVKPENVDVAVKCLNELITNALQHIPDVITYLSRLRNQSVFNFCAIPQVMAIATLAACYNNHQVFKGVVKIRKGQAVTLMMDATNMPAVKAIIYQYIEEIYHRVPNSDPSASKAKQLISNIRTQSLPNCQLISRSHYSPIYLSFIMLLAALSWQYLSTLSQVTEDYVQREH
Assay type: biochemical
Description: In vitro inhibition of squalene synthetase may be measured by the following procedure. Rat liver microsomal squalene synthetase activity was measured using farnesyl pyrophosphate as a substrate and quantitating squalene synthesis using labelled farnesyl pyrophosphate and counting the squalene formed. Rat liver microsome, the source of enzyme, was prepared according to the method of Gillies, P. J., et al., Exp. Molc. Pathol. 44: 329-339 (1986), a modification of the procedure of Erickson, S. K., and Cooper, A. D., Metabolism, 29: 991-996 (1980). […] Oxygen was excluded from the closed incubation tube by degassing with nitrogen. The reaction was terminated by the addition of ethanolic KOH and after degassing with N2, the microsomal membranes were solubilized by heating at 60 °C for 30 minutes. The squalene was extracted into hexane, and the squalene was separated from all other radioactive molecules by passage over an activated alumina column. […] The per cent inhibition at a dose of 10 µM (or 1 µM) compared to controls with no test compound was determined. […]

First: CCCN(Cc1ccc(Oc2ccccc2)cc1)C(=O)[C@@H]1[C@H](C(=O)O)[C@@H](C(=O)OC)[C@H]1C(=O)N(CCC)Cc1ccc(Oc2ccccc2)cc1 (relative stereo) [Example 95, (1α,2β,3β,4α)-1,2-Di[N-propyl-N-(4-phenoxybenzyl)aminocarbonyl]-3-(methoxycarbonyl)cyclobutane-4-carboxylic Acid]
Second: CCCN(Cc1ccc(Oc2ccccc2)cc1)C(=O)[C@@H]1[C@H](C(=O)O)[C@@H](C(=O)NO)[C@H]1C(=O)N(CCC)Cc1ccc(Oc2ccccc2)cc1 (relative stereo) [Example 98C, (1α,2β,3β,4α)-1,2-Di[N-propyl-N-(4-phenoxybenzyl)aminocarbonyl]-3-[(hydroxyamino)carbonyl]cyclobutane-4-carboxylic Acid]
The inhibition at 10 µM of the first is lower: 78% for the first, 84% for the second.

First: CCCN(Cc1ccc(Oc2ccccc2)cc1)C(=O)[C@@H]1[C@H](C(N)=O)[C@@H](C(=O)O)[C@H]1C(=O)N(CCC)Cc1ccc(Oc2ccccc2)cc1 (relative stereo) [Example 99B, (1α,2β,3β,4α)-3-(Amino)carbonyl-1,2-di[N-propyl-N-(4-phenoxybenzyl)aminocarbonyl]cyclobutane-4-carboxylic Acid]
Second: CCCN(Cc1ccc(Oc2ccccc2)cc1)C(=O)[C@@H]1[C@H](C(=O)O)[C@@H](NS(=O)(=O)C(F)(F)F)[C@H]1C(=O)N(CCC)Cc1ccc(Oc2ccccc2)cc1 (relative stereo) [Example 100C, (1α,2β,3β,4α)-1,2-Di[N-propyl-N-(4-phenoxybenzyl)aminocarbonyl]-3-[(trifluoromethanesulfonyl)amino]cyclobutane-4-carboxylic Acid]
The inhibition at 10 µM of the first is lower: 80% for the first, 84% for the second.

Compared with `CCCN(Cc1ccc(Oc2ccccc2)cc1)C(=O)[C@@H]1[C@H](C(=O)C=[N+]=[N-])[C@@H](C(=O)C=[N+]=[N-])[C@H]1C(=O)N(CCC)Cc1ccc(Oc2ccccc2)cc1` (relative stereo) [Example 102, (1α,2β,3β,4α)-3,4-Bis(diazoacetyl)-1,2-di[N-propyl-N-(4-phenoxybenzyl)aminocarbonyl]cyclobutane], `CCCN(Cc1ccc(Oc2ccccc2)cc1)C(=O)[C@@H]1[C@H](CC(=O)O)[C@@H](CC(=O)O)[C@H]1C(=O)N(CCC)Cc1ccc(Oc2ccccc2)cc1` (relative stereo) [Example 103B, (1α,2β,3β,4α)-1,2-Di[-N-propyl-N-(4-phenoxybenzyl)aminocarbonyl]cyclobutane-3-4-diacetic acid] is higher in inhibition at 10 µM: 58% for the first, 90% for the second.

First: CN(Cc1ccc(OCc2ccccc2)cc1)C(=O)[C@H]1[C@@H](C(=O)O)[C@H](C(=O)O)[C@@H]1C(=O)N(C)Cc1ccc(OCc2ccccc2)cc1 [Example 14, (1α,2β,3β,4α)-1,2-Di(N-methyl-N-(4-benzyloxybenzyl)aminocarbonyl]cyclobutane-3,4-dicarboxylic acid]
Second: CN(Cc1cccc(Oc2ccccc2)c1)C(=O)[C@H]1[C@@H](C(=O)O)[C@H](C(=O)O)[C@@H]1C(=O)N(C)Cc1cccc(Oc2ccccc2)c1 [Example 18, (1α,2β,3β,4α)-1,2-Di[N-methyl-N-(3-phenoxybenzyl)aminocarbonyl]cyclobutane-3,4-dicarboxylic acid]
The inhibition at 10 µM of the first is lower: 31% for the first, 55% for the second.

First: O=C(O)[C@H]1[C@H](C(=O)O)[C@H](C(=O)N(Cc2ccccc2)Cc2ccc(Oc3ccccc3)cc2)[C@H]1C(=O)N(Cc1ccccc1)Cc1ccc(Oc2ccccc2)cc1 [Example 15, (1α,2β,3β,4α)-1,2-Di[N-benzyl-N-(4-phenoxybenzyl)aminocarbonyl]cyclobutane-3,4-dicarboxylic acid]
Second: O=C(O)[C@H]1[C@H](C(=O)O)[C@H](C(=O)N(Cc2ccc(Oc3ccccc3)cc2)Cc2ccc(Oc3ccccc3)cc2)[C@H]1C(=O)N(Cc1ccc(Oc2ccccc2)cc1)Cc1ccc(Oc2ccccc2)cc1 [Example 19, (1α,2β,3β,4α)-1,2-Di[N,N-di(4-phenoxybenzyl)aminocarbonyl]cyclobutane-3,4-dicarboxylic acid]
The inhibition at 10 µM of the first is higher: 99% for the first, 86% for the second.

Compared with `CN(Cc1cccc(Oc2ccc(F)cc2)c1)C(=O)[C@H]1[C@@H](C(=O)O)[C@H](C(=O)O)[C@@H]1C(=O)N(C)Cc1cccc(Oc2ccc(F)cc2)c1` [Example 21, (1α,2β,3β,4α)-1,2-Di[N-methyl-N-(3-[4-fluorophenoxy]benzyl)aminocarbonyl]cyclobutane-3,4-dicarboxylic acid], `C#CCN(Cc1ccc(Oc2ccccc2)cc1)C(=O)[C@H]1[C@@H](C(=O)O)[C@H](C(=O)O)[C@@H]1C(=O)N(CC#C)Cc1ccc(Oc2ccccc2)cc1` [Example 27, (1α,2β,3β,4α)-1,2-Di[N-propargyl-N-(4-phenoxybenzyl)aminocarbonyl]cyclobutane-3,4-dicarboxylic acid] is higher in inhibition at 10 µM: 52% for the first, 79% for the second.

Going from `CN(C(=O)[C@H]1[C@@H](C(=O)O)[C@H](C(=O)O)[C@@H]1C(=O)N(C)c1ccc(-c2ccccc2)cc1)c1ccc(-c2ccccc2)cc1` [Example 22, (1α,2β,3β,4α)-1,2-Di[N-methyl-N-biphenylamino-carbonyl]cyclobutane-2,4-dicarboxylic acid] to `CCCN(Cc1ccc(Cc2ccccc2)cc1)C(=O)[C@H]1[C@@H](C(=O)O)[C@H](C(=O)O)[C@@H]1C(=O)N(CCC)Cc1ccc(Cc2ccccc2)cc1` [Example 25, (1α,2β,3β,4α)-1,2-Di[N-propyl-N-(4-benzylbenzyl)aminocarbonyl]cyclobutane-3,4-dicarboxylic acid], the inhibition at 10 µM rises from 20% to 84%.

In the case of `O=C(O)[C@H]1[C@H](C(=O)O)[C@H](C(=O)N(Cc2ccc(Oc3ccccc3)cc2)C2CC2)[C@H]1C(=O)N(Cc1ccc(Oc2ccccc2)cc1)C1CC1` [Example 30, (1α,2β,3β,4α)-1,2-Di[N-cyclopropyl-N-(4-phenoxybenzyl)aminocarbonyl]cyclobutane-3,4-dicarboxylic acid], the inhibition at 10 µM is reported as 67%.

Same assay, conditions: values marked * in Table 1: 1 µM test compound; rat liver microsomes, labelled farnesyl pyrophosphate, 10 minutes at 37 °C

First: CCCN(Cc1ccc(Oc2ccccc2)cc1)C(=O)[C@@H]1[C@H](C(=O)O)[C@@H](CC(=O)O)[C@H]1C(=O)N(CCC)Cc1ccc(Oc2ccccc2)cc1 (relative stereo) [Example 101C]
Second: CCCN(Cc1ccc(Oc2ccccc2)cc1)C(=O)C1C(C(=O)O)C(C(=O)NC(CO)C(=O)O)C1C(=O)N(CCC)Cc1ccc(Oc2ccccc2)cc1 (single isomer, unassigned) [Example 110A, (1α,2β,3β,4α)-1,2-Di[N-propyl-N-(4-phenoxybenzyl)aminocarbonyl]cyclobutane-3.4-dicarboxylic acid mono-Serine amide]
The inhibition at 1 µM of the first is higher: 86% for the first, 73% for the second.

Compared with `CCCCC(NC(=O)[C@@H]1[C@@H](C(=O)O)[C@@H](C(=O)N(CCC)Cc2ccc(Oc3ccccc3)cc2)[C@@H]1C(=O)N(CCC)Cc1ccc(Oc2ccccc2)cc1)C(=O)O` (single isomer, unassigned) [Example 104A, (1α,2β,3β,4α)-1,2-Di[N-propyl-N-(4-phenoxybenzyl)aminocarbonyl]cyclobutane-3,4-dicarboxylic acid Mono-Norleucine Amide], `C=CCN(Cc1ccc(Oc2ccccc2)cc1)C(=O)[C@H]1[C@@H](C(=O)O)[C@H](C(=O)O)[C@@H]1C(=O)N(CC=C)Cc1ccc(Oc2ccccc2)cc1` [Example 29, (1α,2β,3β,4α)-1,2-Di[N-allyl-N-(4-phenoxybenzyl)aminocarbonyl]cyclobutane-3,4-dicarboxylic acid] is higher in inhibition at 1 µM: 70% for the first, 72% for the second.

Compared with `O=C(O)C1C(C(=O)O)C(C(=O)N(Cc2ccc(Oc3ccccc3)cc2)CC2CC2)C1C(=O)N(Cc1ccc(Oc2ccccc2)cc1)CC1CC1` (single isomer, unassigned; (-)) [Example 129B, (-)-(1α,2β,3β,4α)-1,2-Di[N-cyclopropylmethyl-N-(4-phenoxybenzyl)aminocarbonyl]cyclobutane-3,4-dicarboxylic acid], `O=C(O)[C@H]1[C@H](C(=O)O)[C@H](C(=O)N(Cc2ccc(Oc3ccccc3)cc2)CC2CCCCC2)[C@H]1C(=O)N(Cc1ccc(Oc2ccccc2)cc1)CC1CCCCC1` [Example 31] is lower in inhibition at 1 µM: 92% for the first, 37% for the second.

Same assay, conditions: values marked * in Table 1: 1 µM test compound; rat liver microsomes, labelled farnesyl pyrophosphate, 10 minutes at 37 °C; 1 µM

For `CCCCC(NC(=O)[C@@H]1[C@@H](C(=O)O)[C@@H](C(=O)N(CCC)Cc2ccc(Oc3ccccc3)cc2)[C@@H]1C(=O)N(CCC)Cc1ccc(Oc2ccccc2)cc1)C(=O)O` (single isomer, unassigned) [Example 104B, (1α,2β,3β,4α)-1,2-Di[N-propyl-N-(4-phenoxybenzyl)aminocarbonyl]cyclobutane-3,4-dicarboxylic acid Mono-Norleucine Amide], the “% Inhibition at 1 µM” value was 71* %.
`CCCN(Cc1ccc(Oc2ccccc2)cc1)C(=O)C1C(C(=O)O)C(C(=O)NC(CO)C(=O)O)C1C(=O)N(CCC)Cc1ccc(Oc2ccccc2)cc1` (single isomer, unassigned) [Example 110B, (1α,2β,3β,4α)-1,2-Di[N-propyl-N-(4-phenoxybenzyl)aminocarbonyl]cyclobutane-3,4-dicarboxylic acid mono-Serine amide] was tested, and the “% Inhibition at 1 µM” value was 69* %.
